According to patent US9066990B2, “Preparation for restenosis prevention” (priority 2001, dated 2015):

Test: Solubility in the contrast agent or physiological NaCl solution

In the case of CC(=O)O[C@H]1C(=O)[C@@]2(C)[C@H]([C@H](OC(=O)c3ccccc3)[C@]3(O)C[C@H](OC(=O)[C@H](O)[C@@H](NC(=O)c4ccccc4)c4ccccc4)C(C)=C1C3(C)C)[C@]1(OC(C)=O)CO[C@@H]1C[C@@H]2O [paclitaxel, 4,10-β-diacetoxy-13-α-((2R,3S)-3-ben-zamido-2-hydroxy-3-phenylpropionyloxy)-2α-benzoyloxy-5-β, 20-epoxy-1,7-β-dihydroxy-11-taxene-9-one], the “appearance of preparation after mixing” value (4.2 mg paclitaxel in 0.5 ml of ethanol added at room temperature to 50 ml of 0.9% NaCl solution) was “becomes turbid immediately after mixing”, the “particles under a microscope” value (4.2 mg paclitaxel in 50 ml of 0.9% NaCl solution) was “Large aggregations of fine particles” and the “appearance of solution after mixing” value (7.6 mg paclitaxel in 0.5 mg of ethanol added at room temperature to 50 ml Ultravist-370) was “clear solution without any turbidity”. For the same molecule, the “particles under a microscope” value (7.6 mg paclitaxel in 50 ml Ultravist-370) was “No particles can be identified” and the “stability of the solution” value (7.6 mg paclitaxel in 50 ml Ultravist-370, room temperature) was “remains stable for several days”.
